Assay results taken from US20160100574A1, “Antimicrobial Compositions Comprising Glyceryl Ethers” (SYMRISE AG, priority 2013, published 2016).
Each block holds one compound with its values, some of them ahead of it.

Columns and labels:
Assay type in all cases: cell-based
Pseudomonas aeruginosa = assay: Minimum inhibitory concentration according to DIN 58940, Pseudomonas aeruginosa; settings: single antimicrobial agents
Source text: (§1) In order to calculate the Synergy Index SI with MIC values, the Kull equation is used as follows:
(§2) SI=(MICmixture×PA)/MICA+(MICmixture×PB)/MICB (II)
(§3) where SI is the Synergy Index according to Kull^1), 2) MICA is the MIC value for substance A MICB is the MIC value for substance B MICmixture is the MIC value for the mixture of substances A and B PA is the proportion of the substance A in the mixture PB is the proportion of the substance B in the mixture. b) Mixtures containing 3 components
(§4) SI=(MICmixture×PA)/MICA+(MICmixture×PB)/MICB+(MICmixture×PC)/MICC
(§5) where SI is the Synergy Index according to Kull^1), 2) MICA is the MIC value for substance A MICB is the MIC value for substance B MICC is the MIC value for substance C MICmixture is the MIC value for the mixture of substances […] PA is the proportion of the substance A in the mixture PB is the proportion of the substance B in the mixture. PC is the proportion of the substance C in the mixture.

Candida albicans = assay: Minimum inhibitory concentration according to DIN 58940, Candida albicans; settings: single antimicrobial agents
Source text: as §1, §2, §3, §4, §5

A. brasiliensis = assay: Challenge test / synergy (Kull equation), A. brasiliensis; settings: for colony counts Day 2: Day 2, 1% b.w. active in aqueous emulsion of Glyceryl stearyl citrate (Dracorin CE); for colony counts Day 14: Day 14, 1% b.w. active in aqueous emulsion of Glyceryl stearyl citrate (Dracorin CE); for colony counts Day 28: Day 28, 1% b.w. active in aqueous emulsion of Glyceryl stearyl citrate (Dracorin CE)
Method: (§6) 1% b.w. of heptylglycerin, benzylglycerin and phenylpropylglycerin, respectively was added to an aqueous emulsion of Glyceryl stearyl citrate (Dracorin CE). The formulations were tested in standard challenge tests against various micro-organisms.
To calculate the synergism between compounds of formula (I) and other antimicrobial actives, the Kull equation^1 2 was used
SI=(Cmixture×PA)/CA+(Cmixture×PB)/CB (I)
where SI is the Synergy Index according to Kull^1), 2) CA is the cell count for substance A CB is the cell count for substance B Cmixture is the cell count for the mixture of substances A and B PA is the proportion of the substance A in the mixture PB is the proportion of the substance B in the mixture. ^1 Kull, F. C., Eismann, P. C., Sylvestrowicz, H. D., and R. L. Mayer (1961). Mixtures of Quaternary Ammonium Compounds and Long-chain Fatty Acids as Antifungal Agents. Applied Microbiology 9, 538-541.^2 Steinberg, D.C. (2000). Measuring Synergy. Cosmetics & Toiletries 115 (11), 59-62.
Colony counts of <100 were arbitrarily set to 100, in order to allow for synergy calculations with the above equation. The abbreviation “n.a.” means not applicable.

P. aeruginosa = assay: Challenge test of preserved emulsion, P. aeruginosa; settings: for colony counts Day 2: Day 2, 1% b.w. active in aqueous emulsion of Glyceryl stearyl citrate (Dracorin CE); for colony counts Day 7: Day 7, 1% b.w. active in aqueous emulsion of Glyceryl stearyl citrate (Dracorin CE); for colony counts Day 14: Day 14, 1% b.w. active in aqueous emulsion of Glyceryl stearyl citrate (Dracorin CE); for colony counts Day 28: Day 28, 1% b.w. active in aqueous emulsion of Glyceryl stearyl citrate (Dracorin CE)
Method: as §6, with “micro-organisms. The results are shown in Table 1 and indicate the high activity of the actives against yeast and bacteria, but not against mould.” for “micro-organisms.”

Escherichia coli = assay: Minimum inhibitory concentration according to DIN 58940, Escherichia coli; settings: single antimicrobial agents
Source text: as §1, §2, §3, §4, §5

E. coli = assay: Challenge test of preserved emulsion, E. coli; settings: for colony counts Day 2: Day 2, 1% b.w. active in aqueous emulsion of Glyceryl stearyl citrate (Dracorin CE); for colony counts Day 7: Day 7, 1% b.w. active in aqueous emulsion of Glyceryl stearyl citrate (Dracorin CE); for colony counts Day 14: Day 14, 1% b.w. active in aqueous emulsion of Glyceryl stearyl citrate (Dracorin CE); for colony counts Day 28: Day 28, 1% b.w. active in aqueous emulsion of Glyceryl stearyl citrate (Dracorin CE)
Method: as §6, with “micro-organisms. The results are shown in Table 1 and indicate the high activity of the actives against yeast and bacteria, but not against mould.” for “micro-organisms.”

Aspergillus brasiliensis = assay: Minimum inhibitory concentration according to DIN 58940, Aspergillus brasiliensis; settings: single antimicrobial agents
Source text: as §1, §2, §3, §4, §5

C. albicans = assay: Challenge test of preserved emulsion, C. albicans; settings: for colony counts Day 14: Day 14, 1% b.w. active in aqueous emulsion of Glyceryl stearyl citrate (Dracorin CE); for colony counts Day 28: Day 28, 1% b.w. active in aqueous emulsion of Glyceryl stearyl citrate (Dracorin CE)
Method: as §6, with “micro-organisms. The results are shown in Table 1 and indicate the high activity of the actives against yeast and bacteria, but not against mould.” for “micro-organisms.”

Staphylococcus aureus = assay: Minimum inhibitory concentration according to DIN 58940, Staphylococcus aureus; settings: single antimicrobial agents
Source text: as §1, §2, §3, §4, §5

S. aureus = assay: Challenge test of preserved emulsion, S. aureus; settings: for colony counts Day 2: Day 2, 1% b.w. active in aqueous emulsion of Glyceryl stearyl citrate (Dracorin CE); for colony counts Day 7: Day 7, 1% b.w. active in aqueous emulsion of Glyceryl stearyl citrate (Dracorin CE); for colony counts Day 14: Day 14, 1% b.w. active in aqueous emulsion of Glyceryl stearyl citrate (Dracorin CE); for colony counts Day 28: Day 28, 1% b.w. active in aqueous emulsion of Glyceryl stearyl citrate (Dracorin CE)
Method: as §6, with “micro-organisms. The results are shown in Table 1 and indicate the high activity of the actives against yeast and bacteria, but not against mould.” for “micro-organisms.”

[1] = Day 0, 1% b.w. active in aqueous emulsion of Glyceryl stearyl citrate (Dracorin CE)
[2] = Table 2, day 0, 1.0% total active
[3] = Table 2, day 0, relative to day 0, 1.0% total active
[4] = Table 2, day 2, 1.0% total active
[5] = Table 2, day 2, relative to day 0, 1.0% total active
[6] = Table 2, day 7, 1.0% total active
[7] = Table 2, day 7, relative to day 0, 1.0% total active
[8] = Table 2, day 14, 1.0% total active
[9] = Table 2, day 14, relative to day 0, 1.0% total active
[10] = Table 2, day 28, 1.0% total active
[11] = Table 2, day 28, relative to day 0, <100 set to 100, 1.0% total active

- MIC (Pseudomonas aeruginosa; Pseudomonas aeruginosa): 20 mg/mL
- MIC (Candida albicans; Candida albicans): 20 mg/mL
- MIC (Escherichia coli; Escherichia coli, read-out: MIC values E. coli): 10 mg/mL
- MIC (Aspergillus brasiliensis; Aspergillus brasiliensis): 20 mg/mL
- MIC (Staphylococcus aureus; Staphylococcus aureus): 20 mg/mL
Compound: OCC(O)COCc1ccccc1 (stereo not drawn) [Benzylglycerin]
- colony counts Day 0 (A. brasiliensis; [1]): 360.000 cfu/g formulation
- colony counts Day 2 (A. brasiliensis): 490.000 cfu/g formulation
- colony counts Day 14 (A. brasiliensis): 300.000 cfu/g formulation
- colony counts Day 28 (A. brasiliensis): 30.000 cfu/g formulation
- colony counts Day 0 (P. aeruginosa; [1]): 210.000 cfu/g formulation
- colony counts Day 2 (P. aeruginosa): 0 cfu/g formulation
- colony counts Day 7 (P. aeruginosa): 0 cfu/g formulation
- colony counts Day 14 (P. aeruginosa): 0 cfu/g formulation
- colony counts Day 28 (P. aeruginosa): 0 cfu/g formulation
- colony counts Day 0 (E. coli; [1]): 250.000 cfu/g formulation
- colony counts Day 2 (E. coli): 0 cfu/g formulation
- colony counts Day 7 (E. coli): 0 cfu/g formulation
- colony counts Day 14 (E. coli): 0 cfu/g formulation
- colony counts Day 28 (E. coli): 0 cfu/g formulation
- colony counts Day 14 (C. albicans): 0 cfu/g formulation
- colony counts Day 28 (C. albicans): 0 cfu/g formulation
- colony counts Day 0 (S. aureus; [1]): 240.000 cfu/g formulation
- colony counts Day 2 (S. aureus): 700 cfu/g formulation
- colony counts Day 7 (S. aureus): <100 cfu/g formulation
- colony counts Day 14 (S. aureus): 0 cfu/g formulation
- colony counts Day 28 (S. aureus): 0 cfu/g formulation

Compound: OCC(O)COCCCc1ccccc1 (stereo not drawn) [Phenylpropylglycerin]
- colony counts Day 2 (A. brasiliensis): 500.000 cfu/g formulation
- colony counts Day 14 (A. brasiliensis): 20.000 cfu/g formulation
- colony counts Day 28 (A. brasiliensis): 5.900 cfu/g formulation
- colony counts Day 2 (P. aeruginosa): <10 cfu/g formulation
- colony counts Day 7 (P. aeruginosa): <10 cfu/g formulation
- colony counts Day 14 (P. aeruginosa): <10 cfu/g formulation
- colony counts Day 28 (P. aeruginosa): <10 cfu/g formulation
- colony counts Day 2 (E. coli): <10 cfu/g formulation
- colony counts Day 7 (E. coli): <10 cfu/g formulation
- colony counts Day 14 (E. coli): <10 cfu/g formulation
- colony counts Day 28 (E. coli): <10 cfu/g formulation
- colony counts Day 7 (C. albicans; Day 7, 1% b.w. active in aqueous emulsion of Glyceryl stearyl citrate (Dracorin CE)): <10 cfu/g formulation
- colony counts Day 14 (C. albicans): <10 cfu/g formulation
- colony counts Day 28 (C. albicans): <10 cfu/g formulation
- colony counts Day 2 (S. aureus): <10 cfu/g formulation
- colony counts Day 7 (S. aureus): <10 cfu/g formulation
- colony counts Day 14 (S. aureus): <10 cfu/g formulation
- colony counts Day 28 (S. aureus): <10 cfu/g formulation

- MIC values Pseudomonas aeruginosa (Pseudomonas aeruginosa): >20000 ppm
- MIC values Candida albicans (Candida albicans): 2000 ppm
- MIC values E. coli (Escherichia coli): 2500 ppm
- MIC values Aspergillus brasiliensis (Aspergillus brasiliensis): 2000 ppm
- MIC values Staphylococcus aureus (Staphylococcus aureus): 2000 ppm
Compound: CCCCC(CC)COCC(O)CO (stereo not drawn) [Ethylhexylglycerin]
- Colony counts day 0 (A. brasiliensis; [2]): 315.000 cfu/g formulation
- Relative colony counts day 0 (A. brasiliensis; [3]): 1.0000
- Colony counts day 2 (A. brasiliensis; [4]): 159.000 cfu/g formulation
- Relative colony counts day 2 (A. brasiliensis; [5]): 0.5048
- Colony counts day 7 (A. brasiliensis; [6]): 150.000 cfu/g formulation
- Relative colony counts day 7 (A. brasiliensis; [7]): 0.4762
- Colony counts day 14 (A. brasiliensis; [8]): 304.000 cfu/g formulation
- Relative colony counts day 14 (A. brasiliensis; [9]): 0.9635
- Colony counts day 28 (A. brasiliensis; [10]): 304.000 cfu/g formulation
- Relative colony counts day 28 (A. brasiliensis; [11]): 0.9635

- MIC values Pseudomonas aeruginosa (Pseudomonas aeruginosa): 4000 ppm
- MIC values Candida albicans (Candida albicans): 6000 ppm
- MIC values E. coli (Escherichia coli): 4000 ppm
- MIC values Aspergillus brasiliensis (Aspergillus brasiliensis): 4000 ppm
- MIC values Staphylococcus aureus (Staphylococcus aureus): 6000 ppm
Compound: CC(=O)c1ccc(O)cc1 [4HAP, 4-hydroxyacetophenone]
- Colony counts day 0 (A. brasiliensis; [2]): 300.000 cfu/g formulation
- Relative colony counts day 0 (A. brasiliensis; [3]): 1.0000
- Colony counts day 2 (A. brasiliensis; [4]): 56.000 cfu/g formulation
- Relative colony counts day 2 (A. brasiliensis; [5]): 0.1867
- Colony counts day 7 (A. brasiliensis; [6]): 1.900 cfu/g formulation
- Relative colony counts day 7 (A. brasiliensis; [7]): 0.0063
- Colony counts day 14 (A. brasiliensis; [8]): 1.900 cfu/g formulation
- Relative colony counts day 14 (A. brasiliensis; [9]): 0.0063
- Colony counts day 28 (A. brasiliensis; [10]): <100 cfu/g formulation
- Relative colony counts day 28 (A. brasiliensis; [11]): 0.0003
- Colony counts day 0 (A. brasiliensis; Table 3, day 0, 1.0% total active): 300.000 cfu/g formulation
- Relative colony counts day 0 (A. brasiliensis; Table 3, day 0, relative to day 0, 1.0% total active): 1.0000
- Colony counts day 2 (A. brasiliensis; Table 3, day 2, 1.0% total active): 56.000 cfu/g formulation
- Relative colony counts day 2 (A. brasiliensis; Table 3, day 2, relative to day 0, 1.0% total active): 0.1867
- Colony counts day 7 (A. brasiliensis; Table 3, day 7, 1.0% total active): 1.900 cfu/g formulation
- Relative colony counts day 7 (A. brasiliensis; Table 3, day 7, relative to day 0, 1.0% total active): 0.0063
- Colony counts day 14 (A. brasiliensis; Table 3, day 14, 1.0% total active): 1.900 cfu/g formulation
- Relative colony counts day 14 (A. brasiliensis; Table 3, day 14, relative to day 0, 1.0% total active): 0.0063
- Colony counts day 28 (A. brasiliensis; Table 3, day 28, 1.0% total active): <100 cfu/g formulation
- Relative colony counts day 28 (A. brasiliensis; Table 3, day 28, relative to day 0, <100 set to 100, 1.0% total active): 0.0003
